Results: patent US20090053582A1, “METHOD OF COATING BILIRUBIN OXIDASE” (SONY CORPORATION, priority 2007, published 2009)

Experiments:
[1] = system: bilirubin oxidase (BOD), coated BOD 1 (Reference Example)
Procedure: (§1) The solution was homogeneously added to the above acryloylated BOD solution, and the resulting solution was allowed to react for 60 minutes.
(§2) The Michaelis constants (KM) and the reaction rate constants (kcat) of coated BOD 1, coated BOD 2, and free BOD 1 prepared above were measured under the conditions shown in Table 1 below. […] The amount of protein of each BOD sample was determined by bicinchoninic acid (BCA) colorimetric protein assay from a calibration curve of bovine serum albumin (BSA) used as a standard protein.

[2] = system: bilirubin oxidase (BOD), coated BOD 2 (Reference Example)
Procedure: as §1, §2

[3] = system: bilirubin oxidase (BOD), free BOD 1 (not coated, stored at 4° C.); conditions: oxygen saturation
Procedure: As a control, BOD on which coating was not performed and which was stored at 4° C. for the same period of time as that is necessary for the process of preparing coated BOD 2 (hereinafter referred to as “free BOD 1”) was used.
as §2

[4] = system: bilirubin oxidase (BOD), coated BOD 3 (Example 1, coated at 4° C.)
Procedure: (§3) First, 40 mg of BOD and 1 mg of ethylenediaminetetraacetic acid (EDTA) used as a stabilizer were dissolved in 3.8 mL of a 100 mM boric acid solution (pH 9.3). Subsequently, 6.0 mg of N-acryloxysuccinimide was dissolved in 0.2 mL of DMSO, and the solution was then gradually added to the boric acid buffer. The resulting solution was allowed to react at 4° C. for 10 hours. Subsequently, the resulting acryloylated BOD in which acryloyl groups were introduced was purified using a Sephadex G25 column at 4° C.
(§4) Subsequently, at 4° C., a mixture prepared by mixing acrylamide and N,N′-methylenebisacrylamide in a molar ratio of 10:1 was dissolved in 0.5 mL of deionized water free of oxygen. The solution was homogeneously added to the above acryloylated BOD solution, and the resulting solution was allowed to react for 60 minutes. The reaction was further performed in the presence of nitrogen at 4° C. for 60 minutes. Finally, the coated BOD (hereinafter referred to as “coated BOD 3”) was purified using a Sephadex G75 column.
(§5) The Michaelis constants (KM) and the reaction rate constants (kcat) of coated BOD 3, coated BOD 4, free BOD 2, and free BOD 3 prepared above were measured under the conditions shown in Table 4. […] The amount of protein of each BOD sample was determined by BCA colorimetric protein assay from a calibration curve of BSA used as a standard protein.

[5] = system: bilirubin oxidase (BOD), coated BOD 4 (Example 1, coated at 4° C.)
Procedure: as §3, §4, §5

[6] = system: bilirubin oxidase (BOD), free BOD 2 (not coated, stored at 25° C.); conditions: ABTS, pH 7.0, 25° C., oxygen saturation
Procedure: (§6) As controls, BOD on which coating was not performed and which was stored at 25° C. for the same period of time as that is necessary for the process of preparing coated BOD 4 (hereinafter referred to as “free BOD 2”), and BOD on which coating was not performed and which was stored at 4° C. for the same period of time as that is necessary for the process of preparing coated BOD 4 (hereinafter referred to as “free BOD 3”) were used.
as §5

[7] = system: bilirubin oxidase (BOD), free BOD 3 (not coated, stored at 4° C.); conditions: oxygen saturation
Procedure: as §6, §5

kcat ([1]; coated BOD 1, ABTS, pH 7.0, 25° C., oxygen saturation): 10.2 s⁻¹
Michaelis constant (KM) compared with free BOD 1 ([1]; coated BOD 1 vs free BOD 1): no significant difference
Km ([1]; read-out: KM,ABTS, coated BOD 1, 2.05 nM, ABTS 0.05 to 10 mM, pH 7.0 sodium phosphate, 25° C., oxygen saturation, 730 nm): 383 µM
kcat ([2]; coated BOD 2, ABTS, pH 7.0, 25° C., oxygen saturation): 1.92 s⁻¹
Michaelis constant (KM) compared with free BOD 1 ([2]; coated BOD 2 vs free BOD 1): no significant difference
Km ([2]; read-out: KM,ABTS, coated BOD 2, 19.7 nM, ABTS 0.05 to 10 mM, pH 7.0 sodium phosphate, 25° C., oxygen saturation, 730 nm): 405 µM
kcat ([3]; free BOD 1, ABTS, pH 7.0, 25° C.): 234 s⁻¹
Km ([3]; read-out: KM,ABTS, free BOD 1, 712 pM, ABTS 0.05 to 10 mM, pH 7.0 sodium phosphate, 25° C., 730 nm): 307 µM
kcat ([4]; coated BOD 3, ABTS, pH 7.0, 25° C., oxygen saturation): 52.5 s⁻¹
Michaelis constant (KM) compared with free BOD 2 and free BOD 3 ([4]; coated BOD 3 vs free BOD 2 and free BOD 3): about twice
Km ([4]; read-out: KM,ABTS, coated BOD 3, 1.09 nM, ABTS 0.05 to 7 mM, pH 7.0 sodium phosphate, 25° C., oxygen saturation, 730 nm): 570 µM
kcat ([5]; coated BOD 4, ABTS, pH 7.0, 25° C., oxygen saturation): 52.7 s⁻¹
Michaelis constant (KM) compared with free BOD 2 and free BOD 3 ([5]; coated BOD 4 vs free BOD 2 and free BOD 3): about twice
Km ([5]; read-out: KM,ABTS, coated BOD 4, 3.30 nM, ABTS 0.05 to 7 mM, pH 7.0 sodium phosphate, 25° C., oxygen saturation, 730 nm): 670 µM
kcat [6]: 158 s⁻¹
kcat ([7]; free BOD 3, ABTS, pH 7.0, 25° C.): 216 s⁻¹
Km ([7]; read-out: KM,ABTS, free BOD 3, 0.629 nM, ABTS 0.05 to 7 mM, pH 7.0 sodium phosphate, 25° C., 730 nm): 358 µM
Structure (SMILES): CCn1c(=NN=c2sc3cc(S(=O)(=O)O)ccc3n2CC)sc2cc(S(=O)(=O)O)ccc21.N.N [ABTS, 2,2′-Azino-bis(3-ethylbenzothiazoline-6-sulfonic acid) diammonium salt]
